Paper PMC2248166, “Quantitative peptide binding motifs for 19 human and mouse MHC class I molecules derived using positional scanning combinatorial peptide libraries” (Immunome Research, 2008)

Assays:
Assay type in all cases: binding
HLA A*3001 = HLA A*3001 (Homo sapiens, UniProt P04439, D140H/D185E/E176W/F33S/G80R/H175R/K168Q/R138E/R41S); test: biochemical
HLA A*3201 = HLA A*3201 (Homo sapiens, UniProt P04439, A270S/D101S/D185E/E176V/E277Q/F133L/G103R/G107R/G231S/H175R/I121M/I218V/I322F/K168Q/L105A/L300P/L318F/M331R/P208A/P217A/Q94H/R106L/R138Q/S129P/T104I/T323A/T345S/V100E/V321M/V358M); test: biochemical
HLA A*6802 = HLA A*6802 (Homo sapiens, UniProt P04439, A269V/D140Y/D185E/E176V/E277Q/E87N/F33Y/G231S/I121R/I166T/I218V/L180W/L300P/L318F/N151K/P208A/P217A/Q86R/R138H/R169H/S129P/T345S/V36M)
HLA B*0801 = HLA B*0801 (Homo sapiens, UniProt P01889, A93T/A95T/D138N/E176V/E187T/K202T/Q94N/R180D/S35A/V36M/Y33D/Y91F); test: biochemical
HLA B*1501 = HLA B*1501 (Homo sapiens, UniProt P01889, A329T/A93T/A95T/C349S/D201E/D98Y/E187L/E204Q/E69M/E70A/K202T/N87E/Q94N/R155S/R180W/S121R/S35A/S48A/V306I/V36M/Y140S/Y91S); test: biochemical
HLA B*1503 = HLA B*1503 (Homo sapiens, UniProt P01889, A329T/A93T/A95T/C349S/D201E/D98Y/E187L/E204Q/K202T/N87E/Q94N/R155S/R180L/S121R/S35A/V306I/V36M/Y140S/Y91S); test: biochemical
HLA B*3501 = HLA B*3501 (Homo sapiens, UniProt P01889, A329T/A93T/A95T/C349S/D201E/D98Y/E176V/E187L/E204Q/E69T/I218V/K202T/L119I/Q94N/R155S/R180L/S121R/S35A/S48A/T118I/V127L/V306I/V36M/Y140S/Y91F)
HLA B*5101 = HLA B*5101 (Homo sapiens, UniProt P01889, A329T/A93T/A95T/C349S/D138N/D201E/D98Y/E187L/E204Q/E69T/G107R/I218V/K202T/L105A/L119W/N104I/Q94N/R106L/R155S/R180L/S101N/S121T/S35A/S48A/V306I/V36M/Y195H/Y91F)
HLA B*5301 = HLA B*5301 (Homo sapiens, UniProt P01889, A329T/A93T/A95T/C349S/D201E/D98Y/E176V/E187L/E204Q/E69T/G107R/I218V/K202T/L105A/L119I/N104I/Q94N/R106L/R155S/R180L/S101N/S121R/S35A/S48A/T118I/V127L/V306I/V36M/Y140S/Y91F)
HLA B*5401 = HLA B*5401 (Homo sapiens, UniProt P01889, A329T/C349S/D138N/D201E/E176V/E187T/E204Q/E69G/I76V/K202T/L119W/R155S/R180L/S121T/S35A/S48A/V127L/V306I/V36M/Y140L)
HLA B*5801 = HLA B*5801 (Homo sapiens, UniProt P01889, A329T/C349S/D201E/D98Y/E176V/E187L/E204Q/E69T/G107R/I218V/I90N/K202T/L105A/L119I/N104I/N87E/Q89R/Q94S/R106L/R155S/R180L/R86G/S101N/S121R/S35A/S48A/T118I/V127L/V306I/V36M/Y140S/Y91M)
HLA B*5802 = HLA B*5802 (Homo sapiens, UniProt P01889, A329T/C349S/D201E/D98Y/E176V/E187L/E204Q/E69T/G107R/I218V/I90N/K202T/L105A/N104I/N87E/Q89R/Q94S/R106L/R155S/R180L/R86G/S101N/S121W/S35A/S48A/V127L/V306I/V36M/Y140S/Y91M)
H-2 D^b = H-2 D^b (Mus musculus, UniProt P01899)
H-2 D^b, sequence (P01887 21-119): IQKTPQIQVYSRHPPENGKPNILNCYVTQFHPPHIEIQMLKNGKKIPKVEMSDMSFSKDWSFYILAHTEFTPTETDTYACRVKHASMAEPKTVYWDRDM
H-2 D^b, sequence (P01899 25-362): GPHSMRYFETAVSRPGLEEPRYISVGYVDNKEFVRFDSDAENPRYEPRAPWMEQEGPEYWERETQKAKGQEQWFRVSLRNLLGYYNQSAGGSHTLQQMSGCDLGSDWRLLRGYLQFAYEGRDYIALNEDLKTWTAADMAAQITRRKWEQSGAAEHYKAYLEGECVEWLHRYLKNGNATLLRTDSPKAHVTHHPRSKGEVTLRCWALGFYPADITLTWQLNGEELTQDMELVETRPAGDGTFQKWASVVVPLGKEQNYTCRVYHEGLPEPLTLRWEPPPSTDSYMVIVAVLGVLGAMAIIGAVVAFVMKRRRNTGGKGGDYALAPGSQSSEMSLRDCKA

H-2 D^d = H-2 D^d (Mus musculus, UniProt P01900)
H-2 D^d, sequence (P01900 whole entry, looked up): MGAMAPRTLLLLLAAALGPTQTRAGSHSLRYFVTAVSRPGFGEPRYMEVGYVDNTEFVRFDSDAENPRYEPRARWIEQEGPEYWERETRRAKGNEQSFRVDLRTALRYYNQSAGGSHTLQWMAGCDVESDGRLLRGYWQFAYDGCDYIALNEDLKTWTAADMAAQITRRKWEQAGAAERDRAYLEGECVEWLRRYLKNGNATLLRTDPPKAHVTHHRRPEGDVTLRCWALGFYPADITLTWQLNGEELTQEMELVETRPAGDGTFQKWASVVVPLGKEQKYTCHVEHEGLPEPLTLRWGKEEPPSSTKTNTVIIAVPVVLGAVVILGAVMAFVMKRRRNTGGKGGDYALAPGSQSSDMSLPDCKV

H-2 K^d = H-2 K^d (Mus musculus, UniProt P01902)
H-2 K^d, sequence (P01887 21-119): as the sequence (P01887 21-119) above
H-2 K^d, sequence (P01902 22-368): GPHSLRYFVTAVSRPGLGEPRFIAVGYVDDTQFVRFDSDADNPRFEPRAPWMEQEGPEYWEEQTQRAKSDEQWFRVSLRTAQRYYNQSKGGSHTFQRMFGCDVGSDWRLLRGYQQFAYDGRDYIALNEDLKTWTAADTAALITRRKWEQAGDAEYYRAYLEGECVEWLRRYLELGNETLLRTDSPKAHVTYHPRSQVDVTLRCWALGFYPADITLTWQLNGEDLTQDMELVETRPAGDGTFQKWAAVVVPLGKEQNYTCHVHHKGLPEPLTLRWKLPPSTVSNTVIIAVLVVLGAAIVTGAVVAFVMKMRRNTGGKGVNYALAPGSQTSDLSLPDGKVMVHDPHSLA

H-2 K^k = H-2 K^k (Mus musculus, UniProt P04223)
H-2 K^k, sequence (P01887 21-119): as the sequence (P01887 21-119) above
H-2 K^k, sequence (P04223 22-369): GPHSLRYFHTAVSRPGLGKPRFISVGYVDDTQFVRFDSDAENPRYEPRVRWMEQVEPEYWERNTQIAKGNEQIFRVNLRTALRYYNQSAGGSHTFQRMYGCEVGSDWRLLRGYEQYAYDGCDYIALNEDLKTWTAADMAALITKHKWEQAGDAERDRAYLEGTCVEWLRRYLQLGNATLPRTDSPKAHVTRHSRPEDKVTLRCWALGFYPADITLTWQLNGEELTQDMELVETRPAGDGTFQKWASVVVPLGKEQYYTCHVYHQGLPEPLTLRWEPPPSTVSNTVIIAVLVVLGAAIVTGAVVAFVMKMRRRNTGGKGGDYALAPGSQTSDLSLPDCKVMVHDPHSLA

Row | Sequence | Normalized average relative binding affinity(ARB) (HLA A*3001) | Normalized average relative binding affinity(ARB) (HLA A*3201) | Normalized average relative binding affinity(ARB) (HLA A*6802) | Normalized average relative binding affinity(ARB) (HLA B*0801) | Normalized average relative binding affinity(ARB) (HLA B*1501) | Normalized average relative binding affinity(ARB) (HLA B*1503) | Normalized average relative binding affinity(ARB) (HLA B*3501) | Normalized average relative binding affinity(ARB) (HLA B*5101) | Normalized average relative binding affinity(ARB) (HLA B*5301) | Normalized average relative binding affinity(ARB) (HLA B*5401) | Normalized average relative binding affinity(ARB) (HLA B*5801) | Normalized average relative binding affinity(ARB) (HLA B*5802) | Normalized average relative binding affinity(ARB) (H-2 D^b) | Normalized average relative binding affinity(ARB) (H-2 D^d) | Normalized average relative binding affinity(ARB) (H-2 K^d) | Normalized average relative binding affinity(ARB) (H-2 K^k)
1 | XXXXXGXXX [3064.0106] | 0.18 | 0.22 | 0.30 | 0.025 | 0.35 | 0.68 | 0.33 | 0.29 | 0.22 | 0.14 | 0.31 | 0.16 | 0.76 | 0.48 | 0.30 | 0.60
2 | XXXXXHXXX [3064.0107] | 0.16 | 0.50 | 0.11 | 0.12 | 0.28 | 0.25 | 0.26 | 0.33 | 0.30 | 1.0 | 0.40 | 0.27 | 0.36 | 0.48 | 0.31 | 0.20
3 | XXXXXIXXX [3064.0108] | 0.27 | 0.83 | 0.38 | 0.048 | 0.53 | 0.41 | 0.28 | 0.74 | 0.41 | 0.81 | 0.67 | 0.072 | 0.77 | 0.46 | 0.36 | 0.55
4 | XXXXXKXXX [3064.0109] | 0.10 | 0.30 | 0.24 | 0.073 | 0.28 | 0.26 | 0.14 | 0.54 | 0.15 | 0.62 | 0.13 | 0.21 | 0.51 | 0.30 | 0.36 | 0.34
5 | XXXXXLXXX [3064.0110] | 0.28 | 0.33 | 0.16 | 0.061 | 0.12 | 0.37 | 0.29 | 0.55 | 0.18 | 0.21 | 0.49 | 0.31 | 0.64 | 0.54 | 0.34 | 0.25
